Results on one substance are retold here after patent US20030109537A1, “Methods and materials for treating bone conditions” (priority 2001, published 2003).

Data set [1] deals with rat model for parathyroid bone disease. The data set is described as follows: Rat model for parathyroid bone disease: pulsatile vs continuous PTH, bone histomorphometry. The class given is in vivo. How it is done:
Induction of parathyroid bone disease. Three month-old female Sprague-Dawley rats (Harlan Sprague-Dawley, Inc., Indianapolis, Ind.) were randomly divided into 3 groups, with 5 rats per group. In group 1 (pulsatile or intermittent PTH), each rat received 80 μg/kg/day human PTH (1-34) (hPTH) in vehicle (150 mM NaCl, 1 mM HCl and 2% heat-inactivated rat serum) by subcutaneous (s.c.) injection once daily for 7 days. In group 2 (vehicle), an osmotic pump (Alza Corp., Mountainview, Calif.) that delivered vehicle alone at a rate of 1 μl/hr for 7 days was implanted in each rat. In group 3 (continuous PTH), an osmotic pump that delivered 40 μg/kg/day hPTH at a rate of 1 μl/hr for 7 days was implanted in each rat. On day 8, all rats were anesthetized with ketamine (50 mg/kg): xylazine HCl (5 mg/kg) and sacrificed by decapitation. Both tibiae were removed from each rat. Right tibiae were fixed by immersion in 70% ethanol then processed for bone histology to verify the appearance of peritrabecular fibrosis. Left tibiae were frozen in liquid N2 and stored at −80° C. until processed for RNA isolation.
(§1) Bone histomorphometry. Proximal metaphyses were dehydrated in a graded series of ethanol, then infiltrated and embedded in methymethacrylate (Fisher Scientific, Fair Lawn, N.J.). After embedding, 5 μm sections were cut using a microtome (Reichert-Jung Model 2065, Heidelberg, Germany), and the sections were mounted unstained. Dynamic histomorphometric cancellous bone measurements were made in the unstained sections using fluorescent microscopy to detect the injected tetracycline and calcein markers. After obtaining the cancellous bone measurements, consecutive sections were stained with toluidine blue for bone cell and peritrabecular fibrosis measurements using light microscopy. A standard sampling site of 2.8 mm was located in the secondary spongiosa of the metaphysis at 1.5 mm distal to the growth plate.
(§2) All histomorphometric measurements were made with an Osteomeasure image analysis system (OsteoMetrics, Atlanta, Ga.) coupled to a photomicroscope and personal computer. All parameters were calculated according to standardized nomenclature. See, for example, Parfitt et al., J. Bone Miner. Res., 2:595-610 (1987). Bone volume was defined as the percentage of tissue volume consisting of cancellous bone. Tetracycline and calcein labels were determined as the percentage of bone perimeter labeled with fluorochrome. Mineral apposition rate (MAR) was defined as the average width between tetracycline and calcein label divided by interlabel time of 6 days. Bone formation rate (BFR) was defined as the product of MAR and the calcein label perimeter, and was expressed per bone surface (BFR/BS), bone volume (BFR/BV), or tissue volume (BFR/TV). Osteoblast surface was defined as a palisade of large basophilic cuboidal cells directly lying on top of the osteoid, and was expressed as a percent of bone perimeter. Osteoclast surface was defined as the bone perimeter lined by multinucleated cells regardless of the presence of erosion. Fibrotic perimeter was defined as the bone perimeter lined by multilayers of fibroblasts.
A rat model of hyperparathyroidism (HPT) was developed as described in Example 1, and compared to intermittent PTH treatment. PTH results in major changes in bone metabolism in less than 1 week and these short-term changes accurately predict the long-terms effects of the hormone. To induce an anabolic course of PTH action, human recombinant PTH was administered s.c. (80 μg/kg/d). […] In contrast, no increase in osteoclast number was noted.
To mimic HPT, hPTH was infused continuously at the same dose rate (80 μg/kg/d) using a s.c. implanted osmotic pump. […] In addition, bone formation in rats treated continuously or intermittently with PTH had similar increases in bone formation after 1 week. Cancellous osteopenia was not observed. […]

Data set [2] has as its system PTH-induced marrow fibrosis and osteoclast resorption. Nature of the data set: Bone histomorphometry in rats given trapidil, continuous PTH or both. In kind it is in vivo, rat. As to the method:
Treatment protocol. Three month-old female Sprague-Dawley rats were divided into 4 groups. In group 1 (n=9), osmotic pumps that delivered vehicle alone at a rate of 1 μl/hr for 7 days were implanted in each rat. […] In groups 3 and 4 (n=8 and 10, respectively), osmotic pumps were implanted in each rat that delivered 40 μg/kg/day hPTH at a rate of 1 μl/hr for 7 days. […] Tetracycline (20 mg/kg, Sigma Chemical Co., St. Louis, Mo.) and calcein (20 mg/kg, Sigma) fluorochrome labels were injected at the base of the tail on day 0 (tetracycline) and day 6 (calcein). On day 8, all rats were anesthetized and blood was collected by cardiac puncture. The blood samples were used to determine serum chemistry and PTH levels. Following blood collection, the rats were sacrificed by cervical dislocation, and tibiae were surgically removed and fixed in 70% ethanol for bone histomorphometry.
as §1, with “After embedding, 5 μm sections were cut using a microtome (Reichert-Jung Model 2065, Heidelberg, Germany), and the sections were mounted unstained.” left out
as §2, with “Res., 2:595-610 (1987).” left out
Statistical analysis. Multiple group comparisons were determined using one-way analysis of variance (one-way ANOVA) with statistical significance at P<0.05. Differences between pairs of groups were compared by the Fisher's protected least significant difference post-hoc test.
Serum and bone samples were collected after 7 days and analyzed.

Data set [3] concerns PDGF-A positive mast cells. Nature of the data set: Immunohistochemistry for PDGF-A on bone samples. The class given is in vivo, rat.
Data set [4] deals with PTH-induced marrow fibrosis and osteoclast resorption. Nature of the data set: Bone histomorphometry in rats given trapidil, continuous PTH or both. The class given is in vivo, rat. The following applies: continuous PTH, significant upon two-way ANOVA.
Where [5] appears, read: pulsatile PTH 80 μg/kg/day s.c. once daily 7 days, rats.
[6] abbreviates: pulsatile PTH 80 μg/kg/day s.c. once daily 7 days, rats, vs untreated control.
The mark [7] stands for this setting: rat proximal tibial metaphysis cancellous bone, day 8, trapidil 40 mg/kg/day s.c., hPTH 40 μg/kg/day continuous, mean ± SEM.

As for human PTH (1-34), in data set [1] (PTH s.c. 80 μg/kg/d, rats), the osteoclast number entry is on record as “no increase”. Besides, the Cancellous osteopenia result in data set [1] (PTH-treated rats, 1 week) was “not observed”. In addition, in data set [1] (programmed implantable osmotic pump, same quantity of PTH, rats), the “PTH pulse duration having the same effect as continuous PTH” value is 6 h. Also, in data set [1] (setting [5]), the Marrow fibrosis result is “Not observed^a” and the Osteoid surface result is “Minimal^a”. Further, in data set [1] (setting [6]), the Osteoblast perimeter result is “↑^a” and the “mRNA levels for one matrix proteins” value was “↑^a”. In addition, the “cancellous bone formation (per bone surface, bone volume, or tissue volume)” value in data set [2] (continuous PTH, rats) is “stimulated”. Besides, the “osteoclast-lined surface (Oc.S/BS)” value in data set [2] (continuous PTH, rats, FIG. 2B) is reported as “increased”. Further, the peritrabecular fibrosis entry in data set [2] (continuous PTH, rats, FIG. 3) is given as “induced extensive peritrabecular fibrosis”. Also, the “osteoblast surface (Ob.S/BS)” value in data set [2] (continuous PTH, trapidil given with continuous PTH, FIG. 2A) is given as “increased”. Also, in data set [2] (fluorochrome-based analysis of tibial metaphyseal sections, rats), the “effect on cortical bone histomorphometry” value is recorded as “neither trapidil nor PTH treatment had any effect”. Further, in data set [2] (setting [7]), the “BFR/BS (bone formation rate per bone surface)” value is given as 0.71 ± 0.10^ab μm^3/μm^2/day, the “BFR/BV (bone formation rate per bone volume)” value was 2.30 ± 0.31^ab %, the “BFR/TV (bone formation rate per tissue volume)” value is 0.63 ± 0.09^ab % and the “BV/TV (bone volume per tissue volume)” value was 27.25 ± 1.14%. Further, in data set [2] (setting [7]), the Calcein label is recorded as 48.08 ± 5.35^ab %, the “MAR (mineral apposition rate)” value came to 1.29 ± 0.08 μm/day and the Tetracycline label is reported as 5.65 ± 2.48%. Also, in data set [3] (PTH-treated rats), the “mast cell staining for PDGF-A peptide” value is given as “stained intensely”. In data set [3] (PTH-treated vs vehicle, PTH+trapidil treated), the “number of PDGF-A positive mast cells” value is recorded as “increased”. For the same substance, in data set [4], the “rate of mineral apposition” value is recorded as “slightly increased”.
